Results taken from patent US11179465B2, “Topical compositions comprising a corticosteroid” (PRIMUS PHARMACEUTICALS, INC., priority 2014, dated 2021).

Assays:
[1] = system: HPA axis; conditions: topical; cited from earlier work
[2] = Plasma concentrations of clobetasol propionate (PK blood samples); format: in vivo, human
Description: These investigational products were applied twice daily to all affected areas on the body excluding face, scalp, groin, axillae and other intertriginous areas. The subjects had 20 to 50% BSA treated to achieve maximal use exposure. The subjects were visited Screening, Baseline (Day 1), Day 8, Day 15 and Day 43 (if needed to confirm recovery). Clinical determinations of disease severity was conducted using the Investigator Global Assessment (IGA) for overall severity at each visit. Subjects were tested for HPA axis function using the ACTH stimulation test (i.e., a cosyntropin i.v. or i.m. injection) at the Screening Visit (at least 14 days and no more than 28 days prior to Baseline) and at Day 15. In addition, blood samples for serum dehydroepiandrosterone sulfate (DHEAS) was taken at Screening, on Day 8 and at the time of the ACTH stimulation test on Day 15 (pre-test sample) as a secondary measure of HPA axis suppression. At the time of the screening ACTH stimulation test, a PK blood sample was taken to obtain a baseline value (PK screening sample). On Day 15, subjects were applied the last dose of study product at the clinic up to 60 minutes after a pre-treatment PK blood sample was taken (0 hour-Day 15). PK blood samples was then collected at 1, 3 and 6 hours (±5 minutes) after application of the study product.
Subjects had applied study product to all affected areas except the face, scalp, groin, axillae and other intertriginous areas. The target dose was at least 5 to 7 g per day (1 teaspoon of cream, twice daily, applied at approximately 1 mg/cm2 on 20% BSA—3000 cm2). All baseline affected areas and newly affected areas have been treated until the end of the study even if cleared. The investigator had marked the affected areas (in the source document), updated the marking at each visit, and reminded the subjects where study product was to be applied at each visit using the marking. Study product have been applied directly onto affected areas and rubbed in gently and completely. Study product have been applied after bathing, if applicable.

[3] = Average of Post-Treatment, subjects With HPA Axis Suppression
[4] = Average of Post-Treatment, subjects Without HPA Axis Suppression
[5] = Day 15: 1 Hour, subjects With HPA Axis Suppression
[6] = Day 15: 1 Hour, subjects Without HPA Axis Suppression
[7] = Day 15: 3 Hours, subjects With HPA Axis Suppression
[8] = Day 15: 3 Hours, subjects Without HPA Axis Suppression
[9] = Day 15: 6 Hours, subjects With HPA Axis Suppression
[10] = Day 15: 6 Hours, subjects Without HPA Axis Suppression
[11] = Day 15: Pre-Treatment (0 hour), subjects With HPA Axis Suppression
[12] = Day 15: Pre-Treatment (0 hour), subjects Without HPA Axis Suppression
[13] = Screening, subjects With HPA Axis Suppression (both creams pooled)
[14] = Screening, subjects Without HPA Axis Suppression (both creams pooled)

Plasma Concentration of Clobetasol Propionate, Mean ± SD [2, 3]: 0.217123 ± 0.1537979 ng/mL
Plasma Concentration of Clobetasol Propionate, Median [2, 3]: 0.185565 ng/mL
Plasma Concentration of Clobetasol Propionate, Mean ± SD [2, 4]: 0.071244 ± 0.1060424 ng/mL
Plasma Concentration of Clobetasol Propionate, Median [2, 4]: 0.03174 ng/mL
Plasma Concentration of Clobetasol Propionate, Mean ± SD [2, 5]: 0.210873 ± 0.1962904 ng/mL
Plasma Concentration of Clobetasol Propionate, Median [2, 5]: 0.15588 ng/mL
Plasma Concentration of Clobetasol Propionate, Mean ± SD [2, 6]: 0.081012 ± 0.1512306 ng/mL
Plasma Concentration of Clobetasol Propionate, Median [2, 6]: 0.03173 ng/mL
Plasma Concentration of Clobetasol Propionate, Mean ± SD [2, 7]: 0.200668 ± 0.1260445 ng/mL
Plasma Concentration of Clobetasol Propionate, Median [2, 7]: 0.19545 ng/mL
Plasma Concentration of Clobetasol Propionate, Mean ± SD [2, 8]: 0.067637 ± 0.1039073 ng/mL
Plasma Concentration of Clobetasol Propionate, Median [2, 8]: 0.033185 ng/mL
Plasma Concentration of Clobetasol Propionate, Mean ± SD [2, 9]: 0.205386 ± 0.1474279 ng/mL
Plasma Concentration of Clobetasol Propionate, Median [2, 9]: 0.17805 ng/mL
Plasma Concentration of Clobetasol Propionate, Mean ± SD [2, 10]: 0.065451 ± 0.0915422 ng/mL
Plasma Concentration of Clobetasol Propionate, Median [2, 10]: 0.03626 ng/mL
Plasma Concentration of Clobetasol Propionate, Mean ± SD [2, 11]: 0.195691 ± 0.1507514 ng/mL
Plasma Concentration of Clobetasol Propionate, Median [2, 11]: 0.13649 ng/mL
Plasma Concentration of Clobetasol Propionate, Mean ± SD [2, 12]: 0.055406 ± 0.1003403 ng/mL
Plasma Concentration of Clobetasol Propionate, Median [2, 12]: 0.02623 ng/mL
Plasma Concentration of Clobetasol Propionate, Mean ± SD [2, 13]: 0 ± 0 ng/mL
Plasma Concentration of Clobetasol Propionate, Median [2, 13]: 0 ng/mL
Plasma Concentration of Clobetasol Propionate, Mean ± SD [2, 14]: 0.001282 ± 0.0075844 ng/mL
Plasma Concentration of Clobetasol Propionate, Median [2, 14]: 0 ng/mL
Mean plasma clobetasol levels, subjects with HPA axis suppression relative to those without ([2]; Table 8, both creams pooled): more than 3 times
SMILES: CCC(=O)O[C@]1(C(=O)CCl)[C@@H](C)C[C@H]2[C@@H]3CCC4=CC(=O)C=C[C@]4(C)[C@@]3(F)[C@@H](O)C[C@@]21C [Clobetasol Propionate, [17-(2′-chloroacetyl)-9-fluoro-11-hydroxy-10,13,16-trimethyl-3-oxo-6,7,8,11,12,14,15,16-octahydrocyclopenta[a]phenanthren-17-yl] propanoate]
Lowest dose at which the HPA axis is suppressed [1]: 2 grams per day
